This is an account of results in patent US20090234019A1, “T Type Calcium Channel Inhibitors” (priority 2004, published 2009).

Like-named read-outs stand apart in the source and are kept apart here.

For one test, the system named is Jurkat cells. Kind of test: Inhibition of proliferation of Jurkat cells. The test is classed as cell-based, human. The settings on record: Jurkat, 48 hrs, read-out: IC50 of TH-1177 for inhibition of proliferation. On the procedure:
(§1) Cancer cell lines were obtained from the American Type Culture Collection (Manassas, Va.). Cell lines were maintained in RPMI1640 supplemented with glutamine and 5% fetal bovine serum containing SerXtend (Irvine Scientific) when appropriate insulin, as directed by the ATCC. The fetal bovine serum used for culture was heat-inactivated by maintaining the serum at 56° C. for 1 h. Cell lines used were a T celleukemia (Jurkat), prostate cancer (PC3, DU145, LNCAP), breast cancer (MDA468, MDA361, MCF7), pancreatic cancer (MIA PaCa2), liver cancer (Hep G2), lung cancer (A549, NCl H460), colon cancer (HT29, HCT 116), and ovarian cancer (SK-OV-3).
(§2) LNCaP cells at 2.5×10^4 cells/well or PC-3 cells at 5×10^4 cells/well, both in a final volume of […], were plated in triplicate in standard flat-bottomed 96-well tissue culture plates in the presence of drug or vehicle (DMSO). Unless otherwise indicated, cells were grown for 48 h at 37° C. in a CO2 incubator. Relative cell growth was determined with the CellTiter 96 aqueous cell proliferation assay (Promega, Madison, Wis.) as described by the manufacturer using an automated plate reader. Results were calculated in a blinded fashion and are the means of triplicate determinations.

In another test the test system is PC3 cells. Kind of test: Inhibition of proliferation of PC3 cells. The format is cell-based, human. The settings on record: FIG. 6 panel B; read-out: IC50, proliferation of PC3 human prostate cancer cells. The protocol: as §1, §2
Test [1] concerns the target T1, α1H isoform of T type Ca2+ channels (Homo sapiens, UniProt O95180).
T1 construct: expressed in transfected cells; host or cells: HEK293 (stably transfected)
Kind of test: Inhibition of Ca2+ current through transfected α1H channels. The test is classed as cell-based. The settings on record: FIG. 7.

Test [2] has as its system HEK293 cells stably transfected the α1H gene. The test is described as follows: Proliferation of HEK293 cells stably transfected with α1H. The format is cell-based. The settings on record: FIG. 5.
The subject of test [3] is human PC3 prostate cancer cells. The settings on record: xenografted PC3, Haverstick et al. 2000; cited from earlier work.

T1 sequence (O95180 whole entry, canonical isoform): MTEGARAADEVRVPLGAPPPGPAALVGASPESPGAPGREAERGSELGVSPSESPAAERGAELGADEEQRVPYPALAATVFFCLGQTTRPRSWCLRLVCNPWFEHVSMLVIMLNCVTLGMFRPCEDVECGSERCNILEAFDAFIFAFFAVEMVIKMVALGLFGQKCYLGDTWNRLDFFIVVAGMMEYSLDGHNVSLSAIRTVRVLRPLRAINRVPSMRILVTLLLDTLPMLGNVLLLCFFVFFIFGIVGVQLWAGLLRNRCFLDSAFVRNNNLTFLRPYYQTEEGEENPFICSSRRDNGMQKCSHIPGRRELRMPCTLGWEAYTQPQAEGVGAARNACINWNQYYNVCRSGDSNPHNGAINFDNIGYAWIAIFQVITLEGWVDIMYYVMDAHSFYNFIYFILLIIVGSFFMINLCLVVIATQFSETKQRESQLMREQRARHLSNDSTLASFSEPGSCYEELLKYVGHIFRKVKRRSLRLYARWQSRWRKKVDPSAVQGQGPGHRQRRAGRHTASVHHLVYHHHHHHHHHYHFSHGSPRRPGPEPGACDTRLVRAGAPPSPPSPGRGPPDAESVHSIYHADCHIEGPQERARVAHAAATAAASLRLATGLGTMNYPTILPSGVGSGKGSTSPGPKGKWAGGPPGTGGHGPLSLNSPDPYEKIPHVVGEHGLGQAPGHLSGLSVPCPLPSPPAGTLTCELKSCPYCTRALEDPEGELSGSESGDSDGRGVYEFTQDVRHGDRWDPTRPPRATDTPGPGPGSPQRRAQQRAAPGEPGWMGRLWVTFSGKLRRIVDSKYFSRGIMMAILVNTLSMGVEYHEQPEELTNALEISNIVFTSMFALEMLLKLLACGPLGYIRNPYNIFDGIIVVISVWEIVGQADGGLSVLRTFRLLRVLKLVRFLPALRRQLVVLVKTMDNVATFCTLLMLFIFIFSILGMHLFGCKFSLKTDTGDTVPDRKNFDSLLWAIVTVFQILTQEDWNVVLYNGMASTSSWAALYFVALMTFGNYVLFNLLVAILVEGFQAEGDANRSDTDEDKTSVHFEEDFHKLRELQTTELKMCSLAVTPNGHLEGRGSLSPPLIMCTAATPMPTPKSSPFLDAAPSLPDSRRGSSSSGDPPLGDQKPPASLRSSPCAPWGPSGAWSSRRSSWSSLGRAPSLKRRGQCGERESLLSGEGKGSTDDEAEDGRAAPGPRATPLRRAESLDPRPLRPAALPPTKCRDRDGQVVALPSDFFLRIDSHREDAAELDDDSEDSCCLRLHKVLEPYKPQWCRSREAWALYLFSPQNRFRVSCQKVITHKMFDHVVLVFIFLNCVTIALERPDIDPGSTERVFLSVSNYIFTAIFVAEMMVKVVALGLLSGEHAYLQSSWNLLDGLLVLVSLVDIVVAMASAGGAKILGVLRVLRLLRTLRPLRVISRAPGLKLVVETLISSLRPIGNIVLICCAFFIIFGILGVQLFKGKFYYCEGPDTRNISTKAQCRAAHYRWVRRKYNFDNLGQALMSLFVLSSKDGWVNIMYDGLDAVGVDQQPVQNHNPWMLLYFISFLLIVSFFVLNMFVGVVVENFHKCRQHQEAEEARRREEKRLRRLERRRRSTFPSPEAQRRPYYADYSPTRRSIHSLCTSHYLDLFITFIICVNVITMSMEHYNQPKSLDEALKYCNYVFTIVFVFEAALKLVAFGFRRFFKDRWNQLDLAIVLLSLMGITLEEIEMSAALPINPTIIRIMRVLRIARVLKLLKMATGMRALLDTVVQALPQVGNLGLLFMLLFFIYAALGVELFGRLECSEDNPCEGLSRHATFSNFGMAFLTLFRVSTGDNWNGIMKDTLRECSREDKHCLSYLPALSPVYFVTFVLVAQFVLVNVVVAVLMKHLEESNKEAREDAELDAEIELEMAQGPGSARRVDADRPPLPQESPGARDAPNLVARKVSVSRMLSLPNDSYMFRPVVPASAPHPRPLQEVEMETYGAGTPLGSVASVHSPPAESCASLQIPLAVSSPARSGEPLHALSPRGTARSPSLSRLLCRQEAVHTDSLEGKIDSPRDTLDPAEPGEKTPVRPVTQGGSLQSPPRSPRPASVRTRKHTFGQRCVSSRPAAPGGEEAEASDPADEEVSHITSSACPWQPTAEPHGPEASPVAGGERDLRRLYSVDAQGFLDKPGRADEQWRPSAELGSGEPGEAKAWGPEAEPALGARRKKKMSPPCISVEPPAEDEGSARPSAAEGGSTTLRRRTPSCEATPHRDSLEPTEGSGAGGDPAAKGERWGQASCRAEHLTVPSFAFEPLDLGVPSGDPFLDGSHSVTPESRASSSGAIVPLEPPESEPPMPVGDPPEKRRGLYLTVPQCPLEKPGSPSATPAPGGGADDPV

On to `COc1ccc(CCN2CCC[C@H]2COC(c2ccccc2)c2ccc(Cl)cc2)cc1` (some centres unmarked) [TH-1177], for which the IC50 in the test with Jurkat cells (in the absence of ionomycin) is 17.8 µM; in the test on Jurkat cells (in the presence of 30 uM ionomycin), 4.6 µM; in the test on PC3 cells it was 14 µM; in test [1] it was 0.8 µM. Besides, in test [2], the “proliferation of stably transfected HEK293 cells” value is on record as “inhibits proliferation”. Also, in test [3], the “lifespan of nude mice inoculated with human PC3 prostate cancer cells” value is reported as “significantly extended the lifespan”.
On to `COc1ccc(CCN2CCCC2COC(c2ccccc2)c2ccc(Cl)cc2)cc1` (centres unmarked) [TH-1211], for which the IC50 turned out to be 42 µM in the test on PC3 cells and 7 µM in test [1].
